Results reported in ChEMBL document CHEMBL5143617 (Eur J Med Chem, 2022).
Converted amounts (≈) assume the structure as drawn.

How the values were obtained:
[1] = target: T1, cAMP and cAMP-inhibited cGMP 3',5'-cyclic phosphodiesterase 10A (Homo sapiens, UniProt Q9Y233); assay: Inhibition of PDE10A (unknown origin) preincubated for 20 mins followed by substrate addition and measured after 1 hr by PEDlight AMP detection reagent based luminescence assay
[2] = target: 5-hydroxytryptamine receptor 2A (Homo sapiens, UniProt P28223); assay: Binding affinity to 5HT-2A receptor (unknown origin)
5-hydroxytryptamine receptor 2A, sequence (P28223 whole entry): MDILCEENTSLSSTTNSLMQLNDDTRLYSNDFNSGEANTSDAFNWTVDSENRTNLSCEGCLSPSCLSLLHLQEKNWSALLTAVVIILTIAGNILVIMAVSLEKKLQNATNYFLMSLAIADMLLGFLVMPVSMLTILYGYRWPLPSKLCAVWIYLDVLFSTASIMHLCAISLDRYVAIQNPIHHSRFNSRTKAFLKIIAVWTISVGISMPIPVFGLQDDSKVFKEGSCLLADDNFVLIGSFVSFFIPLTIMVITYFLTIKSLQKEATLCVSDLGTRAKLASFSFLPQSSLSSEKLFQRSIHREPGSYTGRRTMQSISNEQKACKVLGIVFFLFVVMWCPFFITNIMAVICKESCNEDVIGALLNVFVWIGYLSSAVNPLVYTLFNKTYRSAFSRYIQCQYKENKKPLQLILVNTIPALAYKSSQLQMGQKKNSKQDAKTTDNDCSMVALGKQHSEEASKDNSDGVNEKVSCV

[3] = AUC(0 to t) in mouse frontal cortex at 0.625 mg/kg, ip by LC/ESI-MS/MS analysis; format: ADME, organism-based; set-up: dose 0.625 mg/kg, route ip
[4] = target: T2, 5-hydroxytryptamine receptor 1A (Homo sapiens, UniProt P08908); assay: Agonist activity at human 5-HT1A receptor expressed in U2OS cells assessed as beta-arrestin recruitment incubated for 5 hrs by Tango assay; format: functional, cell-based
T2 sequence (P08908 whole entry): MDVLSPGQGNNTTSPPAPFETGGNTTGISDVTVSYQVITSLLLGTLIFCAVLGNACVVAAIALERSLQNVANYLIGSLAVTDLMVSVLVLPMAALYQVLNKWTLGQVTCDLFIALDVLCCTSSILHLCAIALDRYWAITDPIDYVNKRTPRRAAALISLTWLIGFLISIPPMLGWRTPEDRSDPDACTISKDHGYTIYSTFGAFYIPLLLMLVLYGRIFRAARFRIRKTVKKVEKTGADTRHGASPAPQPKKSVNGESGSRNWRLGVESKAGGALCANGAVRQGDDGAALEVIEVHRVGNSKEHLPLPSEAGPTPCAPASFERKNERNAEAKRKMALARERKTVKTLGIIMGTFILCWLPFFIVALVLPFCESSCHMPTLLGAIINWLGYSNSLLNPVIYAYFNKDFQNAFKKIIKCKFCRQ

[5] = Apparent volume of distribution in mouse plasma at 0.625 mg/kg, ip measured up to 480 mins by LC/ESI-MS/MS analysis; format: ADME, organism-based
[6] = Tmax in mouse striatum at 0.625 mg/kg, ip by LC/ESI-MS/MS analysis; format: ADME, organism-based
[7] = target: 5-hydroxytryptamine receptor 6 (Homo sapiens) (UniProt P50406); assay: Inhibition of 5-HT6 receptor (unknown origin); conditions: concentration not given here
5-hydroxytryptamine receptor 6 (Homo sapiens), sequence (P50406 whole entry): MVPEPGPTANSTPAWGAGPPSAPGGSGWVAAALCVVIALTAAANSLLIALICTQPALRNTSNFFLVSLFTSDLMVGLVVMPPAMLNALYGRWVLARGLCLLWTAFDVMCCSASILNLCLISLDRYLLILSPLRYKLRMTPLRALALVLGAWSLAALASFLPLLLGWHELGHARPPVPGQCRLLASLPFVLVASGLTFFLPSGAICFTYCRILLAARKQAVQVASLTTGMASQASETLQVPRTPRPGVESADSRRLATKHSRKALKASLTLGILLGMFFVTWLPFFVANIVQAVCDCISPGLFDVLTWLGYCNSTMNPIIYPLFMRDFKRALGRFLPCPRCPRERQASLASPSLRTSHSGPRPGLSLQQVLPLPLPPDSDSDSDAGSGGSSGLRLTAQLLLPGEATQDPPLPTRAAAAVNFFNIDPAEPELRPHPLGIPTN

[8] = Tmax in mouse hippocampus at 0.625 mg/kg, ip by LC/ESI-MS/MS analysis; format: ADME, organism-based
[9] = Metabolic stability in human liver microsomes assessed as intrinsic clearance
[10] = target: T1, cAMP and cAMP-inhibited cGMP 3',5'-cyclic phosphodiesterase 10A; assay: Inhibition of PDE10A (unknown origin) at 10 uM preincubated for 20 mins followed by substrate addition and measured after 1 hr by PEDlight AMP detection reagent based luminescence assay relative to control; conditions: time 80.0 min
[11] = Cmax in mouse plasma at 0.625 mg/kg, ip measured up to 480 mins by LC/ESI-MS/MS analysis; format: ADME, organism-based; set-up: time < 480 min, dose 0.625 mg/kg, route ip
[12] = target: 5-hydroxytryptamine receptor 7 (Homo sapiens, UniProt P34969); assay: Displacement of [3H]-5-CT from human 5-HT7 receptor expressed in CHO-K1 cells membrane by scintillation counter analysis; format: cell membranes
5-hydroxytryptamine receptor 7, sequence (P34969 whole entry): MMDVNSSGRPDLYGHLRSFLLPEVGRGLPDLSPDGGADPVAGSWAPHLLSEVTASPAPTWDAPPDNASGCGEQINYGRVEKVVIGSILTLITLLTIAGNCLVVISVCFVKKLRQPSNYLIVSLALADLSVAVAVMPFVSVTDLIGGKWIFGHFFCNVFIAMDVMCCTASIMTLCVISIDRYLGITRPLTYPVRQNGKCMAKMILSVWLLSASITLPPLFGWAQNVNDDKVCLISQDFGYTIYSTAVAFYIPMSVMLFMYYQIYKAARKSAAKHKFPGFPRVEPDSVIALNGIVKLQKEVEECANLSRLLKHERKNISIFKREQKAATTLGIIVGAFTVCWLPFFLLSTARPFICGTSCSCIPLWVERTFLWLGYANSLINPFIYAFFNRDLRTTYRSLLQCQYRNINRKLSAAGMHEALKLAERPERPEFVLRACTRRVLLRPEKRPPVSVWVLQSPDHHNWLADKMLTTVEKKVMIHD

[13] = Aqueous solubility of compound in simulated gastric fluid by UV absorbance based analysis; format: physicochemical
[14] = Aqueous solubility of compound in PBS buffer at pH 7.4 by UV absorbance based analysis; format: physicochemical
[15] = AUC(0 to t) in mouse hippocampus at 0.625 mg/kg, ip by LC/ESI-MS/MS analysis; format: ADME, organism-based; set-up: dose 0.625 mg/kg, route ip
[16] = target: T3, Adrenergic receptor alpha-1 (Homo sapiens, UniProt P35348+P25100+P35368); assay: Binding affinity to adrenergic alpha 1 receptor (unknown origin); format: protein assay
T3 sequence (P35348 whole entry): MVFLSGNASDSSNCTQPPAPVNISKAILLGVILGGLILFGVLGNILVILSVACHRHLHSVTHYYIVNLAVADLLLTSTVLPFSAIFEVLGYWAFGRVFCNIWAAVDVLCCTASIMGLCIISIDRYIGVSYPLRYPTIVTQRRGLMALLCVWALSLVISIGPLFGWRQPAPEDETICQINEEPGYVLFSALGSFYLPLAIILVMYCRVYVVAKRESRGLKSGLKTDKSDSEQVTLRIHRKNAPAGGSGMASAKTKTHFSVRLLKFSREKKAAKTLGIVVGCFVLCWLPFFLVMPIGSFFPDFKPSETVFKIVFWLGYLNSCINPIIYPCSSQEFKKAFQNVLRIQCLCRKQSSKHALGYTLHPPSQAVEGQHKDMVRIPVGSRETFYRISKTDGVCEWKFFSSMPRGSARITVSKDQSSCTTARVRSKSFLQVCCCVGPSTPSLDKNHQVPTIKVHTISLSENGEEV
T3 sequence (P25100 whole entry): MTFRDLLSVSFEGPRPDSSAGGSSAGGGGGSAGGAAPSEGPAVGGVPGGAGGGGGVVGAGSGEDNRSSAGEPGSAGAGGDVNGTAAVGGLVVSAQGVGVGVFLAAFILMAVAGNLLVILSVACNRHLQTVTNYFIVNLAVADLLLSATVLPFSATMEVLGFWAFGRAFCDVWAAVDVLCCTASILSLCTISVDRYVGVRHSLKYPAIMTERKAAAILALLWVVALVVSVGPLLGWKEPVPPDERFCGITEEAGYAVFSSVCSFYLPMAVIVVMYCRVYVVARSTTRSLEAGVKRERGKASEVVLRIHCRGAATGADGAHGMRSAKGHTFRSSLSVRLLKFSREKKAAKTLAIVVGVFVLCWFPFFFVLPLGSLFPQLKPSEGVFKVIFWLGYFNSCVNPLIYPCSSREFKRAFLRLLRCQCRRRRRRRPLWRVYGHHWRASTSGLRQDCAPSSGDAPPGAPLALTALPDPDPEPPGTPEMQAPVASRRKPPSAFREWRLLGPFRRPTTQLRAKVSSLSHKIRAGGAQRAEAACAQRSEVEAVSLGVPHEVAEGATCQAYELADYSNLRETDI
T3 sequence (P35368 whole entry): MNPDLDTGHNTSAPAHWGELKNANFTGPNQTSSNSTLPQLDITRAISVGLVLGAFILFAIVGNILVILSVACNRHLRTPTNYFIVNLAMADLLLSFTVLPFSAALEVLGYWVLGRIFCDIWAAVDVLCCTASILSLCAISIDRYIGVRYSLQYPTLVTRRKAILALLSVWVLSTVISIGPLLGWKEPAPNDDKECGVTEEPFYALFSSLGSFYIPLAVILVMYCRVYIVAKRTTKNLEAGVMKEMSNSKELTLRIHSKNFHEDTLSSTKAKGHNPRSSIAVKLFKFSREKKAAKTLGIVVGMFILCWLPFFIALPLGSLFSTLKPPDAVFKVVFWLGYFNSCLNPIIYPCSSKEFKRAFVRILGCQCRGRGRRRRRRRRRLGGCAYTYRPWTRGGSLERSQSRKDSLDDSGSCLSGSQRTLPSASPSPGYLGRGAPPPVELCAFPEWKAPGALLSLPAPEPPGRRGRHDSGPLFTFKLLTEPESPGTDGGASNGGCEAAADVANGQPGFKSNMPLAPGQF

[17] = Aqueous solubility of compound in simulated intestinal fluid by UV absorbance based analysis; format: physicochemical
[18] = Cmax in mouse frontal cortex at 0.625 mg/kg, ip by LC/ESI-MS/MS analysis; format: ADME, organism-based; set-up: dose 0.625 mg/kg, route ip

T1 sequence (Q9Y233 whole entry): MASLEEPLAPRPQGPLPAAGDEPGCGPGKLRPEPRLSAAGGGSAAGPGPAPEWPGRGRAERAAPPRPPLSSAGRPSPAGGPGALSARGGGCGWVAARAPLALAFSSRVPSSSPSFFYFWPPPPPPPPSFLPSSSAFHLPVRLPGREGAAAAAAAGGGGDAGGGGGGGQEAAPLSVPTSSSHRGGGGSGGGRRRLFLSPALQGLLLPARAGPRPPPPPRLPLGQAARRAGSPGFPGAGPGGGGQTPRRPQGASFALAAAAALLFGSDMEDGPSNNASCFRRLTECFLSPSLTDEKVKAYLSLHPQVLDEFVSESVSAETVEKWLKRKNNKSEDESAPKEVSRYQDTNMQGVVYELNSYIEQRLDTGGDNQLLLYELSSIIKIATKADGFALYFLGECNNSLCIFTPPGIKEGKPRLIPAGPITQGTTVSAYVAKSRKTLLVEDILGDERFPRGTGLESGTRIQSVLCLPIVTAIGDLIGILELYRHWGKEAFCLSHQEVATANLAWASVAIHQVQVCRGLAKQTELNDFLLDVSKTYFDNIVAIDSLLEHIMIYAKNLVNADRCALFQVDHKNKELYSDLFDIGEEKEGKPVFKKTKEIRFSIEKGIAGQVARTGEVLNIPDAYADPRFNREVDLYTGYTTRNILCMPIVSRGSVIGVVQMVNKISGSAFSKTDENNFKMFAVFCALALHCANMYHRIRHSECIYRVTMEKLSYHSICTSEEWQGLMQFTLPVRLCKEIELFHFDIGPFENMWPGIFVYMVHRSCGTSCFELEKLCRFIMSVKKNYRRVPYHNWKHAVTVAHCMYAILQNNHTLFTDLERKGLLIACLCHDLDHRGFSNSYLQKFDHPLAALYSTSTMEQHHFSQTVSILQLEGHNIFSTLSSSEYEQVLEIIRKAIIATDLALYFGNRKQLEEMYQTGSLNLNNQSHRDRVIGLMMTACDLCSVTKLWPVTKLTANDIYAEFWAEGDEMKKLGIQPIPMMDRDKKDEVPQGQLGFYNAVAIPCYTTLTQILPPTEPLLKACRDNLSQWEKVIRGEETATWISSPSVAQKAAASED

COc1cc2ncnc(N3CCC(CN4CCN(c5ccc(Cl)cc5)CC4)C3)c2cc1OC (stereo not drawn)
IC50 [1]: 1700 nM | Ki [2]: > 1000 nM | AUC(0-t) [3]: 1820 ng·h/mL | EC50 [4]: 12000 nM | Vd/F [5]: 0.272 L/kg | Tmax [6]: 30 min | inhibition [7]: 8% | Tmax [8]: 30 min | microsomal CLint [9]: 75.8 µL/min/mg | inhibition [10]: 21% | Cmax [11]: 4.1 ng/mL | Ki [12]: 138 nM | solubility [13]: 196 µM (≈ 91.9 µg/mL) | solubility [14]: 187 µM (≈ 87.5 µg/mL) | AUC(0-t) [15]: 1040 ng·h/mL | pKi [16]: 6.11 | solubility [17]: 181 µM (≈ 84.7 µg/mL) | Cmax [18]: 327 ng/mL
